A short description of series [1]: In vitro peptide stability in human plasma. Type of series: in vitro ADME. The settings on record: after 24 h incubation at 37° C. in fresh human plasma; HPLC peak area vs sample incubated in PBS; read-out: % of intact peptide in human plasma. As for the experimental part:
(§1) Peptides were prepared as a 1 μg/μl solution in water. 20 μl of the peptide solution was diluted in 80 μl of fresh human plasma or 10% rat brain homogenate (prepared in PBS). The resulting solution was incubated at 37° C. for different times and the reaction was stopped by adding a complete cocktail of protease inhibitors. The bulk of plasma and brain proteins (but none of the peptide) were precipitated in cold methanol (mix/MeOH, 4/5, v/v) during one hour at −20° C. The precipitated proteins were pelleted by centrifugation (10000 g, 10 min, 4° C.). The supernatant, containing the peptide, was concentrated 5 times under vacuum and separated by reverse-phase HPLC. The area of the peak corresponding to the intact peptide was measured and compared with an equivalent sample incubated in PBS. The results are listed in Table 1 as percentage of intact peptide after 24 h incubation at 37° C. in human plasma and in rat brain homogenate. The values compare favourably with those obtained for the reference compound of Example 8.

Series [2] in a line: In vitro peptide stability in rat brain homogenate. The format is in vitro ADME. The following applies: after 24 h incubation at 37° C. in 10% rat brain homogenate; HPLC peak area vs sample incubated in PBS; read-out: % of intact peptide in rat brain homogenate. Here is the method:
as §1

From US20060281686A1, “Aza-peptides” (priority 2002, published 2006) come the findings set out here.

*1 amine or outer side, *2 acyl side, *3 side chain or, on linkers, in order; H or OH if unused. Where a SMILES comes first, the peptide text is derived from it. [ ]: non-standard residue; d: D form. azaPhe = O=C(N(Cc1ccccc1)N[*:1])[*:2]; azaPro = O=C(N1CCCN1[*:1])[*:2]

In the case of `CC(=O)N[C@@H](CC(C)C)C(=O)N1CCC[C@H]1C(=O)NN(Cc1ccccc1)C(=O)N[C@@H](Cc1ccccc1)C(=O)N[C@@H](CC(=O)O)C(N)=O` [Example 5, Ac-L-P-F^a-F-D-NH2] (Ac-LP[azaPhe]FD-NH2), the remaining at 24 h, 0.2 μg/μl came to 93% in series [1] and 71% in series [2].
The matching figures for `CC(=O)N[C@@H](CC(C)C)C(=O)N1CCCN1C(=O)N[C@@H](Cc1ccccc1)C(=O)N[C@@H](Cc1ccccc1)C(=O)N[C@@H](CC(=O)O)C(N)=O` [Example 6, Ac-L-P^a-F-F-D-NH2] (Ac-L[azaPro]FFD-NH2): 93% and 80%.
The matching figures for “Ac-LPFFD-NH2 [Example 8, reference compound]”: 74% and 2%.
